Read-outs that look alike come from different tables or passages of the source.
What was measured:
[1] = tested on: U87 cells; assay: Intracellular uptake by ICP-MS, cancer cells; assay type: cell-based, human; conditions: 200 uM photosensitizer, 0.8 mg/mL transferrin, 4 hours
Protocol: Cell culture (U87 cells) was exposed to 200 uM of the photosensitizer without additional transferrin and in the presence of 0.8 mg/mL transferrin for 4 hours. The incubation mix was washed away and the cells were collected, counted, and lysed. Lysed solution was dissolved in nitric acid and appropriate metals concentration was measured using inductively coupled plasma mass spectrometry. The metals concentration is directly proportional to the concentration of the photosensitizer.

[2] = tested on: HT1376 cells
[3] = Fluorescence with and without transferrin; assay type: physicochemical; conditions: for fluorescence emission maximum: 10 uM
Protocol: Fluorescence of TLD1433 (10 uM) was measured quartz cuvettes without Tf (in water) and in the presence of 0.2 mg/mL Tf (in phosphate buffer+100 mM NaCl, pH=7.0). Fluorescence was measured at different excitation wavelengths (380, 400, 450, 470, 500 nm).
Fluorescence of TLDOsH2dppn (10 uM) was measured quartz cuvettes without Tf (in water) and in the presence of 0.2 mg/mL Tf (in phosphate buffer+100 mM NaCl, pH=7.0). Fluorescence was measured at different excitation wavelengths (380, 400, 450, 470, 500 nm).

[4] = tested on: AY27 cancer cell line; assay: In vitro PDT effect, Presto Blue cell kill; assay type: cell-based; conditions: 90 J cm−2, 0.4 mg/mL human transferrin, 30 minutes
Protocol: The photosensitizer was pre-mixed with 0.4 mg/mL human transferrin and incubated for 1 hour at 37° C. In control group (no additional transferrin), equivalent volume of no-transferrin medium was added. The cells were subsequently incubated with the pre-mixes for 30 minutes (FIG. 14A) or 90 minutes (FIG. 14B). After that, the medium was replaced with a fresh one (without photosensitizer and transferrin) and the cells were irradiated. On the next day (21 hours post-irradiation), viability of the cells was measured using Presto Blue viability assay, and percent of cell kill was calculated. The PDT effect shown is a result of subtraction of “photosensitizer alone” and “light alone” cell kill from the total PDT cell kill.
The photosensitizer was pre-mixed with 0.4 mg/mL human transferrin and incubated for 1 hour at 37° C. In control group (no additional transferrin), equivalent volume of no-transferrin medium was added. The cells were subsequently incubated with the pre-mixes for 30 minutes. After that, the medium was replaced with a fresh one (without photosensitizer and transferrin) and the cells were irradiated. On the next day (21 hours post-irradiation), viability of the cells was measured using Presto Blue viability assay, and percent of cell kill was calculated. […]

[5] = tested on: AY27 cells
[6] = tested on: U87 cells
[7] = tested on: Subcutaneous tumors; assay: In vivo PDT of subcutaneous tumors in mouse thighs
Protocol: Subcutaneous tumors were grown in mouse thighs and PDT (808 nm, 600 Jcm^−2) was performed when tumor reached 5×5 mm in size. Mice were sacrificed if tumor continued to grow after PDT treatment and reached 10×10 mm.
Subcutaneous tumors were grown in mouse thighs and PDT (635 nm, 192 Jcm^−2) was performed when tumor reached 5×5 mm in size. Mice were sacrificed if tumor continued to grow after PDT treatment and reached 10×10 mm.
Subcutaneous tumors were grown in mouse thighs and PDT (525 nm, 90 Jcm^−2) was performed when tumor reached 5×5 mm in size. Mice were sacrificed if tumor continued to grow after PDT treatment and reached 10×10 mm.

[8] = tested on: AY27 cancer cell line; assay: In vitro dark toxicity, Presto Blue cell kill; assay type: cell-based; conditions: 0.4 mg/mL human transferrin, 30 minutes
Protocol: The photosensitizer was pre-mixed with 0.4 mg/mL human transferrin and incubated for 1 hour at 37° C. In control group (no additional transferrin), equivalent volume of no-transferrin medium was added. The cells were subsequently incubated with the pre-mixes for 30 minutes (FIG. 12A) or 90 minutes (FIG. 12B). After that, the medium was replaced with a fresh one (without photosensitizer and transferrin). On the next day (21 hours post-irradiation), viability of the cells was measured using Presto Blue viability assay, and percent of cell kill was calculated.
The photosensitizer was pre-mixed with 0.4 mg/mL human transferrin and incubated for 1 hour at 37° C. In control group (no additional transferrin), equivalent volume of no-transferrin medium was added. The cells were subsequently incubated with the pre-mixes for 30 minutes. After that, the medium was replaced with a fresh one (without photosensitizer and transferrin). On the next day (21 hours post-irradiation), viability of the cells was measured using Presto Blue viability assay, and percent of cell kill was calculated.

[9] = 530 nm, 90 J cm−2, no transferrin
[10] = 650 nm, 90 J cm−2, no transferrin

Structure (SMILES): [Os+2].c1ccc2cc3nc4c5cccnc5c5ncccc5c4nc3cc2c1.c1ccc2nc(-c3ccc4ccccc4n3)ccc2c1.c1ccc2nc(-c3ccc4ccccc4n3)ccc2c1 [TLDOsH2dppn]
- uptake into cancer cells, effect of transferrin [1]: transferrin facilitated uptake
- Therapeutic Ratio [2, 9]: 1548.2
- Therapeutic Ratio ([2]; 530 nm, 90 J cm−2, transferrin): 4963.8
- Therapeutic Ratio ([2]; 650 nm, 90 J cm−2, no transferrin (cell not marked prophetic)): 37.7
- Therapeutic Ratio ([2]; 650 nm, 90 J cm−2, transferrin): 61.9
- fluorescence emission maximum ([3]; 0.2 mg/mL transferrin): 650 nm
- fluorescence emission maximum ([3]; no transferrin (in water)): 660 nm
- fluorescence in the presence of transferrin ([3]; 0.2 mg/mL transferrin, especially at 470 nm excitation): strongly increased
- PDT effect, effect of transferrin ([4]; 530 nm): increases PDT effect
- PDT effect, effect of transferrin ([4]; 635 nm): increases PDT effect
- Therapeutic Ratio [5, 9]: 1639.8
- Therapeutic Ratio ([5]; 530 nm, 90 J cm−2, transferrin): 5531.9
- Therapeutic Ratio [5, 10]: 28.7
- Therapeutic Ratio ([5]; 650 nm, 90 J cm−2, transferrin): 61.7
- Therapeutic Ratio [6, 9]: 1307.3
- Therapeutic Ratio ([6]; 530 nm, 90 J cm−2, transferrin): 5238.0
- Therapeutic Ratio [6, 10]: 15.3
- Therapeutic Ratio ([6]; 650 nm, 90 J cm−2, transferrin): 50.3
- Survival by day 80 ([7]; PDT 525 nm, 90 Jcm−2, with transferrin): 78%
- Survival by day 80 ([7]; PDT 525 nm, 90 Jcm−2, without transferrin): 37%
- Survival by day 80 ([7]; PDT 635 nm, 192 Jcm−2, with transferrin): 75%
- Survival by day 80 ([7]; PDT 635 nm, 192 Jcm−2, without transferrin): 35%
- Survival by day 80 ([7]; PDT 808 nm, 600 Jcm−2, with transferrin): 80%
- Survival by day 80 ([7]; PDT 808 nm, 600 Jcm−2, without transferrin): 40%
- dark toxicity, effect of transferrin [8]: decreases dark toxicity

Source: US10111936B2, “Metal-glycoprotein complexes and photodynamic therapy of immune privileged sites with same” (Theralase Technologies, Inc., priority 2015, dated 2018)
